Laboratory results as given in ChEMBL document CHEMBL3885861, “Open TG-GATES”.

Species: Rattus norvegicus
Assay: Open TG-GATES - Regimen: Daily Repeat
Type: toxicity, organism-based, Sprague-Dawley
Design: regimen Daily Repeat, gender Male, age 6 weeks
Details: in vivo, po, 30 mg/kg, route gavage, dose level Middle; for APTT / Bas / Eos / Fbg / Hb / Ht / Lym / MCH / MCHC / MCV / Mono / Neu / PT / Plat / RBC / Ret / WBC: tissue Blood; for KIDNEY_L / KIDNEY_R / KIDNEY_TOTAL: tissue Kidney; for LIVER: tissue Liver; for A/G / ALP / ALT / AST / BUN / CRE / Ca / Cl / DBIL / GLC / IP / K / LDH / Na / PL / RALB / TBIL / TC / TG / TP / gamma-GTP: tissue Plasma

NC(=O)N/N=C/c1ccc([N+](=O)[O-])o1 [NITROFURAZONE]
TERMINAL_BW (72 h, time 3 day): 221 g
APTT (72 h, time 3 day): 15.2 s
Bas (72 h, time 3 day): 0%
Eos (72 h, time 3 day): 0.8%
Fbg (72 h, time 3 day): 285 mg/dL
Hb (72 h, time 3 day): 12.7 g/dL
Ht (72 h, time 3 day): 38.3%
Lym (72 h, time 3 day): 78.8%
MCH (72 h, time 3 day): 21.6 pg
MCHC (72 h, time 3 day): 33.2%
MCV (72 h, time 3 day): 65 fL
Mono (72 h, time 3 day): 3.2%
Neu (72 h, time 3 day): 16.6%
PT (72 h, time 3 day): 14.2 s
Plat (72 h, time 3 day): 119.4 x10_4/uL
RBC (72 h, time 3 day): 589.8 x10_4/ul
Ret (72 h, time 3 day): 8.5%
WBC (72 h, time 3 day): 86.5 x10_2/uL
KIDNEY_L (72 h, time 3 day): 1 g
KIDNEY_R (72 h, time 3 day): 0.9 g
KIDNEY_TOTAL (72 h, time 3 day): 1.9 g
LIVER (72 h, time 3 day): 11.3 g
A/G (72 h, time 3 day): 0.9
ALP (72 h, time 3 day): 1653.2 IU/L
ALT (72 h, time 3 day): 46.2 IU/L
AST (72 h, time 3 day): 70 IU/L
BUN (72 h, time 3 day): 15.4 mg/dL
CRE (72 h, time 3 day): 0.2 mg/dL
Ca (72 h, time 3 day): 11.4 mg/dL
Cl (72 h, time 3 day): 104.2 meq/L
DBIL (72 h, time 3 day): 0.016 mg/dL
GLC (72 h, time 3 day): 182 mg/dL
IP (72 h, time 3 day): 8 mg/dL
K (72 h, time 3 day): 4.4 meq/L
LDH (72 h, time 3 day): 113.2 IU/L
Na (72 h, time 3 day): 140.6 meq/L
PL (72 h, time 3 day): 164.4 mg/dL
RALB (72 h, time 3 day): 2.5 g/dL
TBIL (72 h, time 3 day): 0.048 mg/dL
TC (72 h, time 3 day): 91.4 mg/dL
TG (72 h, time 3 day): 98.6 mg/dL
TP (72 h, time 3 day): 5.5 g/dL
gamma-GTP (72 h, time 3 day): 1 IU/L
TERMINAL_BW ([…], time 7 day): 259.6 g
TERMINAL_BW ([…], time 14 day): 325.5 g
TERMINAL_BW ([…], time 28 day): 410.1 g
APTT ([…], time 7 day): 16.5 s
Bas ([…], time 7 day): 0%
Eos ([…], time 7 day): 1%
Fbg ([…], time 7 day): 267 mg/dL
Hb ([…], time 7 day): 13.2 g/dL
Ht ([…], time 7 day): 39.5%
Lym ([…], time 7 day): 76%
MCH ([…], time 7 day): 21.1 pg
MCHC ([…], time 7 day): 33.5%
MCV ([…], time 7 day): 63.1 fL
Mono ([…], time 7 day): 2.6%
Neu ([…], time 7 day): 20.2%
PT ([…], time 7 day): 14.3 s
Plat ([…], time 7 day): 120.3 x10_4/uL
RBC ([…], time 7 day): 625.8 x10_4/ul
Ret ([…], time 7 day): 7.3%
WBC ([…], time 7 day): 103.6 x10_2/uL
APTT ([…], time 14 day): 14.3 s
Bas ([…], time 14 day): 0%
Eos ([…], time 14 day): 0.8%
Fbg ([…], time 14 day): 308.8 mg/dL
Hb ([…], time 14 day): 13.5 g/dL
Ht ([…], time 14 day): 41.1%
Lym ([…], time 14 day): 81.8%
MCH ([…], time 14 day): 20.8 pg
MCHC ([…], time 14 day): 32.9%
MCV ([…], time 14 day): 63.2 fL
Mono ([…], time 14 day): 2.4%
Neu ([…], time 14 day): 14.2%
PT ([…], time 14 day): 14.4 s
Plat ([…], time 14 day): 117.9 x10_4/uL
RBC ([…], time 14 day): 650.8 x10_4/ul
Ret ([…], time 14 day): 6.1%
WBC ([…], time 14 day): 78.6 x10_2/uL
APTT ([…], time 28 day): 15.7 s
Bas ([…], time 28 day): 0.2%
Eos ([…], time 28 day): 1%
Fbg ([…], time 28 day): 294 mg/dL
Hb ([…], time 28 day): 14.3 g/dL
Ht ([…], time 28 day): 42.2%
Lym ([…], time 28 day): 82.8%
MCH ([…], time 28 day): 19.7 pg
MCHC ([…], time 28 day): 33.8%
MCV ([…], time 28 day): 58.2 fL
Mono ([…], time 28 day): 2%
Neu ([…], time 28 day): 13.6%
PT ([…], time 28 day): 14.3 s
Plat ([…], time 28 day): 99 x10_4/uL
RBC ([…], time 28 day): 727.8 x10_4/ul
Ret ([…], time 28 day): 4.2%
WBC ([…], time 28 day): 114.5 x10_2/uL
KIDNEY_L ([…], time 7 day): 1.1 g
KIDNEY_R ([…], time 7 day): 1.2 g
KIDNEY_TOTAL ([…], time 7 day): 2.3 g
KIDNEY_L ([…], time 14 day): 1.3 g
KIDNEY_R ([…], time 14 day): 1.3 g
KIDNEY_TOTAL ([…], time 14 day): 2.6 g
KIDNEY_L ([…], time 28 day): 1.6 g
KIDNEY_R ([…], time 28 day): 1.6 g
KIDNEY_TOTAL ([…], time 28 day): 3.3 g
LIVER ([…], time 7 day): 13.3 g
LIVER ([…], time 14 day): 17 g
LIVER ([…], time 28 day): 19 g
A/G ([…], time 7 day): 0.8
ALP ([…], time 7 day): 1619 IU/L
ALT ([…], time 7 day): 41 IU/L
AST ([…], time 7 day): 62.6 IU/L
BUN ([…], time 7 day): 13.8 mg/dL
CRE ([…], time 7 day): 0.2 mg/dL
Ca ([…], time 7 day): 11.2 mg/dL
Cl ([…], time 7 day): 103.6 meq/L
DBIL ([…], time 7 day): 0.016 mg/dL
GLC ([…], time 7 day): 181.8 mg/dL
IP ([…], time 7 day): 7.7 mg/dL
K ([…], time 7 day): 3.8 meq/L
LDH ([…], time 7 day): 90.2 IU/L
Na ([…], time 7 day): 141.8 meq/L
PL ([…], time 7 day): 155.8 mg/dL
RALB ([…], time 7 day): 2.6 g/dL
TBIL ([…], time 7 day): 0.048 mg/dL
TC ([…], time 7 day): 77.6 mg/dL
TG ([…], time 7 day): 117.4 mg/dL
TP ([…], time 7 day): 5.8 g/dL
gamma-GTP ([…], time 7 day): 1 IU/L
A/G ([…], time 14 day): 0.8
ALP ([…], time 14 day): 1501.8 IU/L
ALT ([…], time 14 day): 41.8 IU/L
AST ([…], time 14 day): 63.6 IU/L
BUN ([…], time 14 day): 18 mg/dL
CRE ([…], time 14 day): 0.2 mg/dL
Ca ([…], time 14 day): 11.1 mg/dL
Cl ([…], time 14 day): 103.6 meq/L
DBIL ([…], time 14 day): 0.014 mg/dL
GLC ([…], time 14 day): 193.4 mg/dL
IP ([…], time 14 day): 7.7 mg/dL
K ([…], time 14 day): 4.1 meq/L
LDH ([…], time 14 day): 89.8 IU/L
Na ([…], time 14 day): 142.2 meq/L
PL ([…], time 14 day): 169.2 mg/dL
RALB ([…], time 14 day): 2.8 g/dL
TBIL ([…], time 14 day): 0.05 mg/dL
TC ([…], time 14 day): 87.2 mg/dL
TG ([…], time 14 day): 107.6 mg/dL
TP ([…], time 14 day): 6.1 g/dL
gamma-GTP ([…], time 14 day): 1 IU/L
A/G ([…], time 28 day): 0.8
ALP ([…], time 28 day): 1102.6 IU/L
ALT ([…], time 28 day): 38 IU/L
AST ([…], time 28 day): 56.4 IU/L
BUN ([…], time 28 day): 16.4 mg/dL
CRE ([…], time 28 day): 0.2 mg/dL
Ca ([…], time 28 day): 10.7 mg/dL
Cl ([…], time 28 day): 103.2 meq/L
DBIL ([…], time 28 day): 0.012 mg/dL
GLC ([…], time 28 day): 182.4 mg/dL
IP ([…], time 28 day): 7.1 mg/dL
K ([…], time 28 day): 3.8 meq/L
LDH ([…], time 28 day): 43.2 IU/L
Na ([…], time 28 day): 142.8 meq/L
PL ([…], time 28 day): 163.8 mg/dL
RALB ([…], time 28 day): 2.8 g/dL
TBIL ([…], time 28 day): 0.076 mg/dL
TC ([…], time 28 day): 80.2 mg/dL
TG ([…], time 28 day): 104.4 mg/dL
TP ([…], time 28 day): 6.1 g/dL
gamma-GTP ([…], time 28 day): 1 IU/L
